# Laboratory results published in US20190256499A1, “SUBSTITUTED QUINOXALINE DERIVATIVES AS INHIBITORS OF PFKFB” (priority 2016, published 2019).
# Assay: Kinetic solubility
# Format: physicochemical
# Settings: phosphate buffer, pH 7.4, aqueous buffer, kinetic from dmso stock, phosphate buffer 20 mM pH 7.4, 2% DMSO, room temperature
# Description: Kinetic solubility of compounds of the present invention were tested according the following procedure.
# (a) Buffer Solution Phosphate Buffer 20 mM pH 7.4 is prepared using Sorensen Phosphate Buffer 0.2 M pH 7.4 (EMS) in a 1000 mL volumetric flask (b) 2% DMSO in Phosphate Buffer 20 mM pH 7.4 is prepared by using 1 mL Dimethylsulfoxide (Merck) and 49 ml Sorensen Phosphate Buffer 20 mM pH 7.4 (c) Acetonitrile/Methanole/Eluent A (1:1:2; v/v/v) is prepared by using 50 mL Acetonitrile (Merck), 50 mL Methanol (Merck) and 100 mL Eluent A (d) Eluent A is prepared by using 1 mL Formic Acid (Merck) and 999 mL Ultrapure water (e) Eluent B is prepared by using 1 mL Formic Acid (Merck) and 999 mL Acetonitrile (Merck) (f) Filtration plate: Millipore MultiScreen HTS HV (0.45 μm) 96 Well (Millipore)
# 98 μL buffer solution (a) is added into a well of a 96 well filtration plate (f). Then 2 μL of 10 mM test compound solution in DMSO (Remp tube) is added. The filtration plate is incubated at room temperature for 120 minutes while agitating at 250 rpm and centrifuged with the PP-Plate (g) as receiver plate below (2500 rpm, 3 min). The 50 μL of filtrate is taken from the receiver plate and mixed with 50 μL of 2% DMSO in buffer pH 7.4 solution (b) (dilution factor=2) in a HPLC Vial (i)+(j).
# Standard is prepared by diluting 2 μL of the same 10 mM test compound solution (Remp tube) diluted with 198 μL Acetonitrile/Methanole/Eluent A (1:1:2; v/v/v) (c) to prepare a 100 μM standard solution in a HPLC Vial (i)+(j).
# Column temperature: 37° C. Autosampler: room temperature (approx. 25° C.) Gradient programme: […]
# Injection volume: 10 μL Wavelength: Suitable wavelength (maximum sensitivity) selected out of wavelength range of 190-400 nm using a DAD detector.
# L [μg/mL]=(area sample*concentration standard*dilution factor sample)/(area standard*dilution factor standard)
# S [mol/L]=[…] Calculation: […]
row,SMILES,solubility kinetic at 120 min
1,"Cn1ccc2ccc(-c3cc(NC(c4cccnc4)c4ccc(=O)[nH]n4)cc4nccnc34)cc21 (single isomer, unassigned) [Example 2]",61 µM
2,"COc1ccc([C@@H](Nc2cc(-c3ccc4ccn(C)c4c3)c3nccnc3c2)c2cccnc2)nn1 (single isomer, unassigned) [Example 5]",20 µM
3,"Cn1cc([C@H](Nc2cc(-c3ccc4ccn(C)c4c3)c3nccnc3c2)c2cnnn2C)cn1 (single isomer, unassigned) [Example 8]",110 µM
4,"Cn1cc([C@H](Nc2cc(-c3ccc4ccn(C)c4c3)c3nccnc3c2)c2cncn2C)cn1 (single isomer, unassigned) [Example 11]",100 µM
5,"COc1ccc([C@@H](Nc2cc(-c3ccc4ccn(C)c4c3)c3nccnc3c2)c2cccnc2)cn1 [Comparative Example 4, [(S)-(6-methoxy-pyridin-3-yl)-pyridin-3-yl-methyl]-[8-(1-methyl-1H-indol-6-yl)-quinoxalin-6-yl]-amine, reference compound]",3.7 µM
